From patent US20250136576A1, “Heterocyclic Compounds and Uses Thereof” (ACEA Therapeutics, Inc., priority 2021, published 2025) come the findings set out here.

Assay type in all cases: cell-based
Experiment [1] concerns H1975 cells. Kind of experiment: Cell proliferation and growth inhibition assay (CCK-8) in H1975. Particulars: Homo sapiens, NCI-H1975, 72 h, treated with test compounds for 72 hrs, CCK-8 viability, read-out: EGFR IC50 in H1975. In outline: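 Cells seeded at 30,000 (MV-4-11, IMDM) or 3,000 (H1975, RPMI 1640) per well, left 24 h, then compound-treated 72 h at 37 °C, 5% CO2, 10% FBS. Viability read by CCK-8 (1–4 h) at OD450. IC50 from sigmoidal dose-response nonlinear regression.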

Experiment [2] concerns KM12-luc cells. Kind of experiment: Cell proliferation and growth inhibition assay (CCK-8) in KM12-luc. The settings on record: KM12-luc cells, treated with test compounds for 72 hrs, CCK-8 viability, read-out: NTRK IC50 in KM12-luc. In outline:
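IC50 values were fitted by sigmoidal dose-response non-linear regression of CCK-8 OD450 absorbance after 1-4 hrs with reagent. Culture media were IMDM for MV-4-11, RPMI 1640 for H1975 and DMEM for KM12-luc, each with 10% FBS at 37 °C, 5% CO2.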

Experiment [3] has as its system MV-4-11 (AML) cells. Kind of experiment: Cell proliferation and growth inhibition assay (CCK-8) in MV-4-11. The settings on record: Homo sapiens, MV4-11; MV-4-11 cells, treated with test compounds for 72 hrs, CCK-8 viability. The procedure: MV-4-11 and H1975 cells were obtained from the American Type Culture Collection and KM12-luc cells were obtained from JCRB Cell Bank. All cell lines were maintained at 37° C. with 5% C02, in media supplemented with 10% fetal bovine serum and penicillin (100 units/mL) and streptomycin (100 μg/mL). MV-4-11 cells were maintained in Iscove's Modified Dubecco's Medium, H1975 cells were cultured with RPMI 1640 media, and KM12-luc cells were maintained in Dulbecco's Modification of Eagle's Medium. CCK-8 reagent was obtained from Yeasen.
Cell proliferation was assessed by CCK-8 assay (Yeasen) per the manufacturer's instructions. The MV-4-11 (AML), H1975, and KM12-luc cells were seeded at 30,000, 3,000 and 2,500 cells per well onto 96-well plates, and after a 24 h incubation, the cells were treated with test compounds for 72 hrs. Cell viability was assayed by incubating the cells with CCK-8 reagent for 1-4 hrs. Absorbance was measured at OD450 using the Beckman DTX880. The data was calculated using GraphPad Prism version 6.01. The IC50 values were fitted using a non-linear regression model with a sigmoidal dose response.

Read-outs that look alike come from different tables or passages of the source.

For `CC(=O)Nc1cc(Nc2ncc(Cl)c(-c3cn(C)c4ccccc34)n2)ccc1N1CCC(N(C)C)C1` (stereo not drawn) [Compound 402, N-(5-((5-chloro-4-(1-methyl-1H-indol-3-yl)pyrimidin-2-yl)amino)-2-(3-(dimethylamino)pyrrolidin-1-yl)phenyl)acetamide], the 50% inhibitory concentration (IC50) in experiment [1] stood at 1210 nM; in experiment [2] (KM12-Luc, 72 h) it was 27.4 nM; in experiment [3], 64.2 nM.
With `Cc1cccc2c(-c3nc(Nc4ccc(N(C)CCN(C)C)c(N)c4)ncc3Cl)c[nH]c12` [Compound 422, N^4-(5-chloro-4-(7-methyl-1H-indol-3-yl)pyrimidin-2-yl)-N^1-(2-(dimethylamino)ethyl)-N^1-methylbenzene-1,2,4-triamine], the IC50 in experiment [1] came to 288 nM; in experiment [2] (KM12-Luc, 72 h) it was 5.2 nM; in experiment [3], 5.2 nM.
For `CC(=O)Nc1cc(Nc2ncc(Cl)c(-c3c[nH]c4ccccc34)n2)ccc1N1CCC(N(C)C)C1` (stereo not drawn) [Compound 444, N-(5-((5-chloro-4-(1H-indol-3-yl)pyrimidin-2-yl)amino)-2-(3-(dimethylamino)pyrrolidin-1-yl)phenyl)acetamide], the IC50 worked out at 299 nM in experiment [1]; 5.5 nM in experiment [2] (KM12-Luc, 72 h); 2.9 nM in experiment [3].
In the same order, the values of `CC(=O)Nc1cc(Nc2ncc(Cl)c(-c3c[nH]c4ccccc34)n2)ccc1N(C)C(=O)CCN(C)C` [Compound 446, N-(2-acetamido-4-((5-chloro-4-(1H-indol-3-yl)pyrimidin-2-yl)amino)phenyl)-3-(dimethylamino)-N-methylpropanamide] are 667 nM, 4.9 nM and 10.6 nM.
For `CC(=O)Nc1cc(Nc2ncc(C(F)(F)F)c(-c3c[nH]c4c(F)cccc34)n2)ccc1N1CC[C@@H](N(C)C)C1` [Compound R-344, (R)—N-(2-(3-(dimethylamino)pyrrolidin-1-yl)-5-((4-(7-fluoro-1H-indol-3-yl)-5-(tri-fluoromethyl)pyrimidin-2-yl)amino)phenyl)acetamide], the half-maximal inhibitory concentration (IC50) is 205 nM in experiment [1]; 7.4 nM in experiment [2] (KM12-Luc, 72 h); 5.4 nM in experiment [3].
In the same order, the values of `CC(=O)Nc1cc(Nc2ncc(C(F)(F)F)c(-c3c[nH]c4c(C)cccc34)n2)ccc1N1CC[C@@H](N(C)C)C1` [Compound R-366, (R)—N-(2-(3-(dimethylamino)pyrrolidin-1-yl)-5-((4-(7-methyl-1H-indol-3-yl)-5-(trifluoromethyl)pyrimidin-2-yl)amino)phenyl)acetamide] are 88.6 nM, 5.2 nM and 5.3 nM.
In the case of `COc1cccc2c(-c3nc(Nc4ccc(N5CC[C@@H](N(C)C)C5)c(NC(C)=O)c4)ncc3C(F)(F)F)c[nH]c12` [Compound R-382, (R)—N-(2-(3-(dimethylamino)pyrrolidin-1-yl)-5-((4-(7-methoxy-1H-indol-3-yl)-5-(trifluoromethyl)pyrimidin-2-yl)amino)phenyl)acetamide], the IC50 in experiment [1] came out at 128 nM; in experiment [2] (KM12-Luc, 72 h) it was 9.2 nM; in experiment [3], 6.3 nM.
Turning to `COc1cccc2c(-c3nc(Nc4ccc(N5CC[C@@H](N(C)C)C5)c(N)c4)ncc3C(F)(F)F)c[nH]c12` [Compound R-383, (R)-4-(3-(dimethylamino)pyrrolidin-1-yl)-N^1-(4-(7-methoxy-1H-indol-3-yl)-5-(trifluoromethyl)pyrimidin-2-yl)benzene-1,3-diamine], the concentration for half-maximal inhibition (IC50) in experiment [1] worked out at 129 nM; in experiment [2] (KM12-Luc, 72 h) it was 8.5 nM; in experiment [3], 4.7 nM.
In the same order, the values of `CC(=O)Nc1cc(Nc2ncc(Cl)c(-c3c[nH]c4c(C)cccc34)n2)ccc1N1CC[C@@H](N(C)C)C1` [Compound R-426, (R)—N-(5-((5-chloro-4-(7-methyl-1H-indol-3-yl)pyrimidin-2-yl)amino)-2-(3-(dimethylamino)pyrrolidin-1-yl)phenyl)acetamide] are 152 nM, 2.1 nM and 3 nM.
In the same order, the values of `CC(=O)Nc1cc(Nc2ncc(C(F)(F)F)c(-c3c[nH]c4c(F)cccc34)n2)ccc1N1CC[C@H](N(C)C)C1` [Compound S-344, (S)—N-(2-(3-(dimethylamino)pyrrolidin-1-yl)-5-((4-(7-fluoro-1H-indol-3-yl)-5-(tri-fluoromethyl)pyrimidin-2-yl)amino)phenyl)acetamide] are 198 nM, 6.3 nM and 5.6 nM.
In the same order, the values of `CC(=O)Nc1cc(Nc2ncc(C(F)(F)F)c(-c3c[nH]c4c(C)cccc34)n2)ccc1N1CC[C@H](N(C)C)C1` [Compound S-366, (S)—N-(2-(3-(dimethylamino)pyrrolidin-1-yl)-5-((4-(7-methyl-1H-indol-3-yl)-5-(trifluoromethyl)pyrimidin-2-yl)amino)phenyl)acetamide] are 97.8 nM, 3.1 nM and 3 nM.
Consider `COc1cccc2c(-c3nc(Nc4ccc(N5CC[C@H](N(C)C)C5)c(NC(C)=O)c4)ncc3C(F)(F)F)c[nH]c12` [Compound S-382a, (S)—N-(2-(3-(dimethylamino)pyrrolidin-1-yl)-5-((4-(7-methoxy-1H-indol-3-yl)-5-(trifluoromethyl)pyrimidin-2-yl)amino)phenyl)acetamide], for which the IC50 in experiment [1] was determined as 134 nM; in experiment [2] (KM12-Luc, 72 h), 5.3 nM; in experiment [3], 3.7 nM.
In the same order, the values of `COc1cccc2c(-c3nc(Nc4ccc(N5CC[C@H](N(C)C)C5)c(N)c4)ncc3C(F)(F)F)c[nH]c12` [Compound S-383, (S)-4-(3-(dimethylamino)pyrrolidin-1-yl)-N^1-(4-(7-methoxy-1-1H-indol-3-yl)-5-(trifluoromethyl)pyrimidin-2-yl)benzene-1,3-diamine] are 118 nM, 9.5 nM and 4.6 nM.
On to `Cc1cccc2c(-c3nc(Nc4ccc(N5CC[C@H](N(C)C)C5)c(N)c4)ncc3Cl)cn(C)c12` [Compound S-425, (S)—N^1-(5-chloro-4-(1,7-dimethyl-1H-indol-3-yl)pyrimidin-2-yl)-4-(3-(dimethylamino)pyrrolidin-1-yl)benzene-1,3-diamine], for which the IC50 in experiment [1] is 167 nM; in experiment [2] it was 3.5 nM; in experiment [3], 3.2 nM.
In the same order, the values of `CC(=O)Nc1cc(Nc2ncc(Cl)c(-c3cn(C)c4c(C)cccc34)n2)ccc1N1CC[C@H](N(C)C)C1` [Compound S-426, (S)—N-(5-((5-chloro-4-(1,7-dimethyl-1H-indol-3-yl)pyrimidin-2-yl)amino)-2-(3-(dimethylamino)pyrrolidin-1-yl)phenyl)acetamide] are 189 nM, 2.7 nM and 4.2 nM.

In general, IC50 refers to the point on the concentration scale where inhibition reaches its midpoint.
